Test results taken from patent US8450308B2 (Vitae Pharmaceuticals, Inc., priority 2008, dated 2013).
Where two headings read alike, the source gives them in different places.

Molecular target: T1, truncated human beta-secretase (residues 1-458, His6-tagged at the C-terminus) (Homo sapiens, UniProt P56817)
T1 construct: truncated human beta-secretase (residues 1-458, His6-tagged at the C-terminus); His6 (C); made in house; host or cells: insect cells D. melanogaster S2 (baculovirus expression system (so in the source))
Assay: BACE fluorescence quench assay
Assay type: biochemical
Method: The assay was performed at room temperature in 96-well white opaque Optiplates aque Optiplates (PerkinElmer, Waltham, Mass.) in a total volume of 200 μl of the incubation mixture containing 50 mM sodium acetate buffer, pH 4.5, 0.4 μM FRET substrate, 2.4 nM enzyme, 5% DMSO, and 0.05% Brij-35. The tested compounds were serially diluted in DMSO and pre-incubated with the substrate. The reaction was started by addition of enzyme, and the progress of the reaction was followed by measuring fluorescence with an excitation wavelength of 480 nm and an emission wavelength of 520 nm. Ten measurements were taken every 5-10 min, and the intensity of fluorescence was regressed against time in order to derive velocities of reaction in all 96 wells. […] IC50 values were calculated by fitting percent inhibition vs. inhibitor concentration into a four-parametric logistic model using XLFit software (IDBS, Guildford, UK).

[1] = in vitro enzyme activity, BACE fluorescence assay, pH 4.5, read-out: IC50

T1 sequence (P56817 22-458): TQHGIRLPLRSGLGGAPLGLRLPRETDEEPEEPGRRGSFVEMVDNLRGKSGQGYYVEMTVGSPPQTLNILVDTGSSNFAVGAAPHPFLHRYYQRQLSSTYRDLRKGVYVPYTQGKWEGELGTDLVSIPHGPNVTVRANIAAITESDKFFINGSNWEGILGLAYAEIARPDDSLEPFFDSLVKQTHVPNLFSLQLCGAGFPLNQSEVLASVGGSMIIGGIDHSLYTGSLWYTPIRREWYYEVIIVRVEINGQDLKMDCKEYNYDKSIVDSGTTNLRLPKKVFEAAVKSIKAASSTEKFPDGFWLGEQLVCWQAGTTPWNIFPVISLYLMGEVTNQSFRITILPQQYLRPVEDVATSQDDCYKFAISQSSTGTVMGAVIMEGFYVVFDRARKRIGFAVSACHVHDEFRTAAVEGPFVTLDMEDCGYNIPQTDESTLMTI

SMILES	IC50 [1] [nM]	IC50 [nM]
N#Cc1cccc(-c2ccc3c(c2)C2(CC(c4ccccc4)O3)N=C(N)N(CC3CCCCC3)C2=O)c1 (stereo not drawn) [Compound 18, 3-(2′-amino-1′-(cyclohexylmethyl)-5′-oxo-2-phenyl-1′,5′-dihydrospiro[chroman-4,4′-imidazole]-6-yl)benzonitrile]	500 to 1000	–
CN1C(=O)C2(CC(c3ccc(F)cc3)Oc3ccc(-c4cccc(C#N)c4)cc32)N=C1N (stereo not drawn) [Compound 19, 3-(2′-amino-2-(4-fluorophenyl)-1′-methyl-5′-oxo-1′,5′-dihydrospiro[chroman-4,4′-imidazole]-6-yl)benzonitrile]	500 to 1000	–
CN1C(=O)[C@@]2(C[C@@H](c3ccc(F)cc3)Oc3ccc(-c4cccc(C#N)c4)cc32)N=C1N [Compound 19a, 3-((2S,4S)-2′-amino-2-(4-fluorophenyl)-1′-methyl-5′-oxo-1′,5′-dihydrospiro[chroman-4,4′-imidazole]-6-yl)benzonitrile]	500 to 1000	–
CN1C(=O)C2(CC(c3cccc(Cl)c3)Oc3ccc(-c4cccc(C#N)c4)cc32)N=C1N (stereo not drawn) [Compound 20, 3-(2′-amino-2-(3-chlorophenyl)-1′-methyl-5′-oxo-1′,5′-dihydrospiro[chroman-4,4′-imidazole]-6-yl)benzonitrile]	500 to 1000	–
CN1C(=O)C2(CC(c3ccccc3)Oc3ccc(-c4cc(C#N)ccc4Cl)cc32)N=C1N (stereo not drawn) [Compound 21, 3-(2′-amino-1′-methyl-5′-oxo-2-phenyl-1′,5′-dihydrospiro[chroman-4,4′-imidazole]-6-yl)-4-chlorobenzonitrile]	–	500 to 1000
C=Cc1cccc(-c2ccc3c(c2)C2(CC(c4ccccc4)O3)N=C(N)N(C)C2=O)c1 (stereo not drawn) [Compound 22, 2′-amino-1′-methyl-2-phenyl-6-(3-vinylphenyl)spiro[chroman-4,4′-imidazol]-5′(1′H)-one]	–	1000 to 5000
COc1cccc(C2CC3(N=C(N)N(C)C3=O)c3cc(-c4cccc(C#N)c4)ccc3O2)c1 (stereo not drawn) [Compound 23, 3-(2′-amino-2-(3-methoxyphenyl)-1′-methyl-5′-oxo-1′,5′-dihydrospiro[chroman-4,4′-imidazole]-6-yl)benzonitrile]	1000 to 5000	–
CN1C(=O)C2(CC(c3ccccc3)Oc3ccc(-c4cccc(OC(F)(F)F)c4)cc32)N=C1N (stereo not drawn) [Compound 24, 2′-amino-1′-methyl-2-phenyl-6-(3-(trifluoromethoxy)phenyl)spiro[chroman-4,4′-imidazol]-5′(1′H)-one]	–	1000 to 5000
CN1C(=O)C2(CC(c3ccccc3)Oc3ccc(-c4ccc(CO)cc4)cc32)N=C1N (stereo not drawn) [Compound 26, 2′-amino-6-(4-(hydroxymethyl)phenyl)-1′-methyl-2-phenylspiro[chroman-4,4′-imidazol]-5′(1′H)-one]	–	1000 to 5000
CN1C(=O)C2(CC(c3ccccc3)Oc3ccc(-c4ccccc4)cc32)N=C1N (stereo not drawn) [Compound 27, 2′-amino-1′-methyl-2,6-diphenylspiro-[chroman-4,4′-imidazol]-5′(1′H)-one]	–	1000 to 5000
CN1C(=O)C2(CC(c3ccccc3)Oc3ccc(-c4cccc(S(C)(=O)=O)c4)cc32)N=C1N (stereo not drawn) [Compound 28, 2′-amino-1′-methyl-6-(3-(methylsulfonyl)phenyl)-2-phenylspiro[chroman-4,4′-imidazol]-5′(1′H)-one]	–	1000 to 5000
CN1C(=O)C2(CC(c3ccccc3)Oc3ccc(-c4cccc(CC#N)c4)cc32)N=C1N (stereo not drawn) [Compound 29, 2-(3-(2′-amino-1′-methyl-5′-oxo-2-phenyl-1′,5′-dihydrospiro[chroman-4,4′-imidazole]-6-yl)phenyl)acetonitrile]	–	1000 to 5000
CN1C(=O)C2(CC(c3ccccc3)Oc3ccc(-c4cccc(C(F)(F)F)c4)cc32)N=C1N (stereo not drawn) [Compound 30, 2′-amino-1′-methyl-2-phenyl-6-(3-(trifluoromethyl)phenyl)spiro[chroman-4,4′-imidazol]-5′(1′H)-one]	–	1000 to 5000
CN1C(=O)C2(CC(c3cccnc3)Oc3ccc(-c4cccc(C#N)c4)cc32)N=C1N (stereo not drawn) [Compound 31]	1000 to 5000	–
CN1C(=O)C2(CC(C)(c3ccccc3)Oc3ccc(-c4cccc(C#N)c4)cc32)N=C1N (stereo not drawn) [Compound 32, 3-(2′-amino-1′,2-dimethyl-5′-oxo-2-phenyl-1′,5′-dihydrospiro[chroman-4,4′-imidazole]-6-yl)benzonitrile]	1000 to 5000	–
CN1C(=O)C2(CC(c3ccccc3)Oc3ccc(-c4cccc(CO)c4)cc32)N=C1N (stereo not drawn) [Compound 33, 2′-amino-6-(3-(hydroxymethyl)phenyl)-1′-methyl-2-phenylspiro[chroman-4,4′-imidazol]-5′(1′H)-one]	–	1000 to 5000
CN1C(=O)C2(CC(c3cccc(Cl)c3)Oc3ccc(Br)cc32)N=C1N (stereo not drawn) [Compound 34, 2′-amino-6-bromo-2-(3-chlorophenyl)-1′-methylspiro[chroman-4,4′-imidazol]-5′(1′H)-one]	1000 to 5000	–
CN1C(=O)C2(CC(c3ccccc3)Oc3ccc(-c4ccccc4C#N)cc32)N=C1N (stereo not drawn) [Compound 35, 2-(2′-amino-1′-methyl-5′-oxo-2-phenyl-1′,5′-dihydrospiro[chroman-4,4′-imidazole]-6-yl)benzonitrile]	–	1000 to 5000
CN1C(=O)C2(CC(c3ccccc3)Oc3ccc(-c4cccs4)cc32)N=C1N (stereo not drawn) [Compound 36, 2′-amino-1′-methyl-2-phenyl-6-(thiophen-2-yl)spiro[chroman-4,4′-imidazol]-5′(1′H)-one]	–	1000 to 5000
CN1C(=O)C2(CC(c3cccc(F)c3)Oc3ccc(Br)cc32)N=C1N (stereo not drawn) [Compound 38, 2′-amino-6-bromo-2-(3-fluorophenyl)-1′-methylspiro[chroman-4,4′-imidazol]-5′(1′H)-one]	1000 to 5000	–
CN(C)C(=O)c1cccc(-c2ccc3c(c2)C2(CC(c4ccccc4)O3)N=C(N)N(C)C2=O)c1 (stereo not drawn) [Compound 39, 3-(2′-amino-1′-methyl-5′-oxo-2-phenyl-1′,5′-dihydrospiro[chroman-4,4′-imidazole]-6-yl)-N,N-dimethylbenzamide]	–	1000 to 5000
CN1C(=O)C2(CC(c3ccccc3)Oc3ccc(-c4ccc(F)c(C(=O)NCCO)c4)cc32)N=C1N (stereo not drawn) [Compound 40, 5-(2′-amino-1′-methyl-5′-oxo-2-phenyl-1′,5′-dihydrospiro[chroman-4,4′-imidazole]-6-yl)-2-fluoro-N-(2-hydroxyethyl)benzamide]	–	1000 to 5000
CC(=O)Nc1cccc(-c2ccc3c(c2)C2(CC(c4ccccc4)O3)N=C(N)N(C)C2=O)c1 (stereo not drawn) [Compound 41, N-(3-(2′-amino-1′-methyl-5′-oxo-2-phenyl-1′,5′-dihydrospiro[chroman-4,4′-imidazole]-6-yl)phenyl)acetamide]	–	1000 to 5000
CN1C(=O)C2(CC(c3cccc(F)c3F)Oc3ccc(Br)cc32)N=C1N (stereo not drawn) [Compound 42]	5000 to 10000	–
CC(=O)NCc1cccc(-c2ccc3c(c2)C2(CC(c4ccccc4)O3)N=C(N)N(C)C2=O)c1 (stereo not drawn) [Compound 43, N-(3-(2′-amino-1′-methyl-5′-oxo-2-phenyl-1′,5′-dihydrospiro[chroman-4,4′-imidazole]-6-yl)benzyl)acetamide]	–	5000 to 10000
CN1C(=O)C2(CC(c3ccccc3)Oc3ccc(Br)cc32)N=C1N (stereo not drawn) [Compound 44, 2′-amino-6-bromo-1′-methyl-2-phenylspiro[chroman-4,4′-imidazol]-5′(1′H)-one]	–	10000 to 50000
CN1C(=O)C2(CC(c3ccccc3)Oc3ccc(-c4cccc(S(=O)(=O)N(C)C)c4)cc32)N=C1N (stereo not drawn) [Compound 45, 3-(2′-amino-1′-methyl-5′-oxo-2-phenyl-1′,5′-dihydrospiro[chroman-4,4′-imidazole]-6-yl)-N,N-dimethylbenzenesulfonamide]	–	5000 to 10000
